Test results as given in US20160136295A1, “BIOMARKERS FOR TREATMENT WITH ANTI-TUBULIN CHEMOTHERAPEUTIC COMPOUNDS” (GENENTECH, INC., priority 2012, published 2016).
Peptide text beside a SMILES is read from it. * marks the point of attachment. Cbz = O=C(OCc1ccccc1)*

Experiments:
[1] = system: murine embryonic fibroblasts (MEFs); assay: Viability of BCL2-family-member-null MEFs by propidium iodide staining after anti-tubulin agents; assay type: cell-based; conditions: for killing (cell viability): treated 48 hours; for sensitivity to killing: 48 hours
Protocol: (§1) The viability of cancer cell lines, and MEFs in which genes encoding IAPs had been knocked out, was analysed by using the CellTiter-Glo Luminescent Cell Viability Assay® (Promega). Cells were treated in triplicate with anti-tubulin agents for the indicated times, using dimethylsulphoxide treatment as a control. The viability of BCL2-family-member-null MEFs was analysed by propidium iodide staining, as described previously (Chen, L. et al. (2005) Molecular cell 17:393-403), after treatment with anti-tubulin agents for 48 h. Cell synchronization was achieved by culture either in serum-free medium for 12-16 h or in medium containing 2 mM thymidine for 18-24 h, release from the thymidine block with three washes in PBS, followed by culture for 8-12 h in complete growth media (compositions are described in the Supplementary Information). Cells then underwent a second thymidine block for 16-20 h, three further washes in PBS and release into complete medium containing the indicated reagents. To block MCL1 degradation, […] MG132 was added as cells entered mitotic arrest, as assessed by visual inspection. See the Examples for full methods.

Mcl-1 = Mcl-1 protein level / degradation in mitotic arrest (western blot of synchronized cells); assay type: cell-based, human
Protocol: as §1
(§2) Western blotting was performed essentially as described (Wertz, I. E. et al. (2004) Science (New York, N.Y 303:1371-1374). In brief, cells were lysed in corrected FLAG elution buffer (CFEB) (19.17 mM Tris (pH 7.5), 916.7 μM MgCl2, 92.5 mM NaCl and 0.1% Triton X-100) with protease and phosphatase inhibitors; in some cases 6 M urea was added. Cleared lysates were quantitated and equal amounts of proteins were reduced, alkylated, separated by SDS-PAGE, and transferred onto PVDF membranes (Invitrogen) following standard procedures. Western blotting was performed as recommended by the respective antibody manufacturers. Patient tissue and xenograft samples were lysed in 5× volume of CFEB with protease inhibitors using Fast prep 24 (MP Biologicals). Tissue lysates were cleared and 40 μg total protein was prepared for western blotting analysis as described above. Immunoprecipitations were performed with the indicated antibodies as described (Willis, S. N. et al. (2007) Science (New York, N.Y 315:856-859; Wertz, I. E. et al. (2004) Science (New York, N.Y 303:1371-1374). PP2A activity was performed on PP2A or Mcl-1 immunoprecipitates as recommended by the manufacturer (Upstate)

Mcl-1 S121 = assay: In vitro kinase reactions: percent phosphorylation of full-length recombinant Mcl-1 at S121; assay type: biochemical, human; conditions: for Percent phosphorylation S121, AVE: average of INJ1 and INJ2; for Percent phosphorylation S121, INJ1: sample injection 1; for Percent phosphorylation S121, INJ2: sample injection 2
Protocol: (§3) To determine the suitability of residues in Mcl-1 as kinase substrates, 10 μM of Mcl-1 was incubated with selected kinase at enzyme concentrations between 25 and 100 nM. For these reactions the Mcl-1 was dialyzed into 20 mM Phosphate, 50 mM Tris pH 7.5 150 mM NaCl, 5 mM DTT and 0.5% CHAPS. The protein solution was further supplemented with MgCl2 to 10 mM and ATP to 1 mM prior to addition of kinase. Purified recombinant kinases were purchased from Invitrogen Co. (Carlsbad, Calif.).
(§4) 10 μl of each of the Mcl-1 kinase reactions (100 pmol) were loaded onto a 4-12% Bis-Tris gel for separation by SDS-PAGE after reduction. Mcl-1 bands were excised from the gel, dehydrated (50% acetonitrile in 50 mM ammonium bicarbonate then 100% acetonitrile washes), and incubated with 0.2 μg trypsin overnight at 37° C.
(§5) Samples were injected in duplicate via autosampler onto a nanoAcquity® UPLC (Waters, Milford, Mass.) and analyzed on-line via nanospray ionization into an LTQ-Orbitrap® mass spectrometer at a concentration of 300 fmol synthetic peptide mix per injection. Areas were integrated for the isotopic and kinase phosphorylated peptides, and compared to their non-phosphorylated peptide counterparts to obtain percent phosphorylation values.

Mcl-1 T163 = assay: In vitro kinase reactions: percent phosphorylation of full-length recombinant Mcl-1 at T163; assay type: biochemical, human; conditions: single kinase reactions; for Percent phosphorylation T163, AVE: average of INJ1 and INJ2; for Percent phosphorylation T163, INJ1: sample injection 1; for Percent phosphorylation T163, INJ2: sample injection 2
Protocol: as §3, §4, §5

Mcl-1 S159/T163 = assay: In vitro kinase reactions: percent phosphorylation of full-length recombinant Mcl-1 at S159+T163; assay type: biochemical, human; conditions: for Percent phosphorylation S159/T163, AVE: average; for Percent phosphorylation S159/T163, INJ1: sample injection 1; for Percent phosphorylation S159/T163, INJ2: sample injection 2
Protocol: as §3, §4, §5

Mcl-1 T92 = assay: In vitro kinase reactions: percent phosphorylation of full-length recombinant Mcl-1 at T92; assay type: biochemical, human; conditions: single kinase reactions, peak areas of 0 and 1P, triple charged state; for Percent phosphorylation T92, AVE: average; for Percent phosphorylation T92, INJ1: sample injection 1; for Percent phosphorylation T92, INJ2: sample injection 2
Protocol: as §3, §4, §5

myc-Mcl-1 / FLAG-FBW7 = assay: Recruitment of myc-Mcl-1 to FLAG-FBW7 in mitotic arrest (immunoprecipitation, HeLa cells); assay type: cell-based, human; conditions: HeLa released into paclitaxel; agent 1 hour then 3 hour 25 μM MG-132; SP600125 25 μM, SB203580 2.65 μM, CGP74514A, roscovitine 2.5 μM
Protocol: The indicated constructs were expressed in HeLa cells with or without scramble or cdc20 RNAi, and then synchronized and released into paclitaxel. […] Cells were subsequently collected and processed as indicated.
as §2

[2] = system: FBW7-WT, FBW7−/− or FBW7 mutant colon cancer cell lines (HCT116, DLD1); assay: Cell viability of colon cancer cell lines by FBW7 status (CellTiter-Glo); assay type: cell-based, human; conditions: 48 hours
Protocol: as §1
were synthesized by Ambion and experiments were performed as described (Huang, H. C., et al (2009) Cancer cell 16:347-358). For viability experiments using stable cell lines transfected with doxycycline-inducible shRNAs to LacZ or Mcl-1 ORF, cells were plated in 10 cm2 plates with 0.2 μg/mL doxycycline for two days. On the third day, cells were plated in to 96-well plates at 5×10^3 per well for viability assays as described above. […] For western blot analysis, cells were harvested at indicated time points and processed as described above.

HCT116 cells = assay: Live time-lapse imaging of mitotic fate; assay type: cell-based, human
Protocol: HCT116 parental or FBW7−/− cells expressing shLacZ or shMcl-1 were plated at 15,000-30,000 cells per well in 96-well μ-plates (ibidi GmbH) and infected with GFP-H2B baculovirus (Invitrogen) 24 hours prior to adding paclitaxel or vincristine. Cells were imaged live at 37° C. with 5% CO2 using a Nikon TiE® microscope with a Cool Snap® CCD camera (Roper Scientific) and a Plan Apo VC 20× 0.75 NA objective. Three images with 6 μm z-steps were acquired for each position every 10 minutes for 43 hours. Mitotic fate was analyzed manually using NIS-Elements software (Nikon) and numerical data was complied and statistically analyzed using Excel (Microsoft). Fifty mitotic cells were analyzed for each condition and p-values were calculated for the change in the number of cells that exited mitosis or entered apoptosis using the one-tailed Fisher's exact test.

Mcl-1 S159 = assay: In vitro kinase reactions: percent phosphorylation of full-length recombinant Mcl-1 at S159 alone; assay type: biochemical, human; conditions: % phos on S159 alone; for Percent phosphorylation S159, AVE: average; for Percent phosphorylation S159, INJ1: sample injection 1; for Percent phosphorylation S159, INJ2: sample injection 2
Protocol: as §3, §4
as §5, with “values. For phosphorylation analysis of T92, no synthetic peptide was available so peak areas of the phosphorylated peptide covering residues 76-95 was divided by the total occurrence of peptide 76-95 in both phosphorylated and non-phosphorylated forms.” for “values.”

[3] = % phos on S159+T163, CDK1 + kinase panel reactions
[4] = % phos on S159+T163, single kinase reactions
[5] = HeLa released into paclitaxel, CGP74514A 2 μM, FR180204 2 μM, SP600125 25 μM, SB203580 2 μM added on entry into mitotic arrest

Row | Molecule | Percent phosphorylation S121, AVE (Mcl-1 S121; CDK1 + kinase panel reactions) [%] | Percent phosphorylation S121, INJ1 (Mcl-1 S121; CDK1 + kinase panel reactions) [%] | Percent phosphorylation S121, INJ2 (Mcl-1 S121; CDK1 + kinase panel reactions) [%] | Percent phosphorylation S121, AVE (Mcl-1 S121; single kinase reactions) [%] | Percent phosphorylation S121, INJ1 (Mcl-1 S121; single kinase reactions) [%] | Percent phosphorylation S121, INJ2 (Mcl-1 S121; single kinase reactions) [%] | Percent phosphorylation T163, AVE (Mcl-1 T163) [%] | Percent phosphorylation T163, INJ1 (Mcl-1 T163) [%] | Percent phosphorylation T163, INJ2 (Mcl-1 T163) [%] | Percent phosphorylation S159/T163, AVE (Mcl-1 S159/T163; [3]) [%] | Percent phosphorylation S159/T163, INJ1 (Mcl-1 S159/T163; [3]) [%] | Percent phosphorylation S159/T163, INJ2 (Mcl-1 S159/T163; [3]) [%] | Percent phosphorylation S159/T163, AVE (Mcl-1 S159/T163; [4]) [%] | Percent phosphorylation S159/T163, INJ1 (Mcl-1 S159/T163; [4]) [%] | Percent phosphorylation S159/T163, INJ2 (Mcl-1 S159/T163; [4]) [%] | Percent phosphorylation T92, AVE (Mcl-1 T92) [%] | Percent phosphorylation T92, INJ1 (Mcl-1 T92) [%] | Percent phosphorylation T92, INJ2 (Mcl-1 T92) [%] | also measured
1 | COC(=O)Nc1nc2ccc(C(=O)c3cccs3)cc2[nH]1 [nocodazole] |  |  |  |  |  |  |  |  |  |  |  |  |  |  |  |  |  |  | killing (cell viability) ([1]; BAX−/−/BAK−/− MEFs): resistant; killing (cell viability) ([1]; wild-type MEFs): significantly more sensitive; Mcl-1 protein level in mitotic arrest (Mcl-1; synchronized cells (HeLa) released into the agent): declined markedly
2 | MAPK9: purified recombinant kinase purchased from Invitrogen | 11.82 | 11.75 | 11.89 | 6.02 | 6.46 | 5.57 | 48.52 | 48.92 | 48.11 | 0.61 | 0.73 | 0.49 | 4.82 | 5.41 | 4.22 | 2.02 | 2.30 | 1.74 | 
3 | C[S+]([O-])c1ccc(-c2nc(-c3ccncc3)c(-c3ccc(F)cc3)[nH]2)cc1 (stereo not shown) [SB203580] |  |  |  |  |  |  |  |  |  |  |  |  |  |  |  |  |  |  | Mcl-1 degradation in mitotic arrest (Mcl-1; [5]): attenuate Mcl-1 degradation; recruitment of myc-Mcl-1 to FLAG-FBW7 in mitotic arrest (myc-Mcl-1 / FLAG-FBW7): attenuates recruitment of myc-Mcl-1 to FLAG-FBW7
4 | CC[C@]1(O)C[C@H]2CN(CCc3c([nH]c4ccccc34)[C@@](C(=O)OC)(c3cc4c(cc3OC)N(C=O)[C@H]3[C@@](O)(C(=O)OC)[C@H](OC(C)=O)[C@]5(CC)C=CCN6CC[C@]43[C@@H]65)C2)C1 [vincristine, 22-Oxovincaleukoblastine] |  |  |  |  |  |  |  |  |  |  |  |  |  |  |  |  |  |  | sensitivity to killing ([1]; BCL-X−/− MEFs vs wild-type): not BCL-X enhances sensitivity; sensitivity to killing ([1]; MCL-1−/− MEFs vs wild-type): enhanced sensitivity; sensitivity to drug-induced death upon reducing Mcl-1 protein ([2]; FBW7-null HCT116 cells, doxycycline-inducible Mcl-1 shRNA): restored their sensitivity; resistance to drug-induced cell death ([2]; FBW7-null cell lines relative to wild-type cells): more resistant; drug-induced apoptosis upon decreasing Mcl-1 protein levels (HCT116 cells; FBW7-null cells with Mcl-1 shRNA vs control shRNA): enhanced; exit from drug-induced mitotic arrest (mitotic slippage) (HCT116 cells; FBW7-null vs FBW7-wild-type cells): more readily
5 | CSNK2: purified recombinant kinase purchased from Invitrogen | 21.48 | 20.17 | 22.78 | 10.28 | 10.20 | 10.36 | 0.00 | 0.00 | 0.00 | 7.70 | 8.30 | 7.09 | 3.80 | 5.61 | 1.99 | 0.10 | 0.09 | 0.10 | Percent phosphorylation S159, AVE (Mcl-1 S159; CDK1 + kinase panel reactions): 17.13%; Percent phosphorylation S159, INJ1 (Mcl-1 S159; CDK1 + kinase panel reactions): 16.35%; Percent phosphorylation S159, INJ2 (Mcl-1 S159; CDK1 + kinase panel reactions): 17.90%; Percent phosphorylation S159, AVE (Mcl-1 S159; single kinase reactions): 39.13%; Percent phosphorylation S159, INJ1 (Mcl-1 S159; single kinase reactions): 40.30%; Percent phosphorylation S159, INJ2 (Mcl-1 S159; single kinase reactions): 37.95%
6 | MAPK14: purified recombinant kinase purchased from Invitrogen | 20.58 | 21.26 | 19.90 | 5.26 | 7.22 | 3.29 | 76.20 | 79.44 | 72.96 | 2.14 | 1.84 | 2.43 | 4.35 | 1.12 | 7.57 | 8.94 | 9.67 | 8.20 | 
7 | CC(C)C[C@@H](C=O)NC(=O)[C@H](CC(C)C)NC(=O)[C@H](CC(C)C)NC(=O)OCc1ccccc1 [MG132] (Cbz-Leu-Leu-Leu-aldehyde) |  |  |  |  |  |  |  |  |  |  |  |  |  |  |  |  |  |  | Mcl-1 degradation in mitotic arrest (Mcl-1; HeLa, HCT116 cells, MG132 added as cells entered mitotic arrest): blocked Mcl-1 degradation
8 | Nc1[nH]nc2nnc(-c3c(-c4ccccc4)nn4ccccc34)cc12 [FR180204] |  |  |  |  |  |  |  |  |  |  |  |  |  |  |  |  |  |  | Mcl-1 degradation in mitotic arrest (Mcl-1; [5]): but not ERK, attenuate Mcl-1 degradation
